The text below walks through data of publication PMC4081582, “Enhancing Effect of Borneol and Muscone on Geniposide Transport across the Human Nasal Epithelial Cell Monolayer” (PLoS ONE, 2014).

Assay type in all cases: cell-based, human
Series [1] has as its system HNECs. The series can be described thus: MTT cytotoxicity assay on HNECs. To be noted: 24 h. On the procedure: The cytotoxicity of the main active ingredients in “Xing Nao Jing” on HNECs was evaluated by the methyl thiazolyl tetrazolium (MTT) colorimetric assay. Briefly, 100 µL of 5×10^4 cells·mL^−1 was seeded into 96-well plates. After 24 h, the medium was removed and replaced with a fresh medium containing increasing concentrations of geniposide, borneol, muscone and their combinations for another 24 h. After that, 15 µL of a 5 mg·mL^−1 MTT solution in 100 µL BEGM was added to each well. After 4 h of incubation, the supernatant was discarded and formazan crystals were dissolved in DMSO followed by vigorous mixing. Control wells were incubated with BEGM only and were treated similarly as above. The optical density was determined at 490 nm with a Multiskan Go microplate reader (Thermo, USA). The percent viability of the cells was determined from the absorbance values considering that of the control as 100%.
The percentage of cell toxicity in the MTT assay was calculated by the following equation (1): [drawing 1]
(Formazan colour is commonly taken as a measure of viable cells.)

The subject of a further series is actin. The series can be described thus: Actin immunostaining of HNEC monolayer (tight junction). Conditions: 3 h exposure with geniposide 50 µg·mL^−1, vs control. The text has this: Cells cultured on 12-well polyester membrane Transwell clear inserts were stained for actin. […] Fluorescence was visualized on an epifluorescence microscope (IX-71, Olympus, Japan) using a blue filter and images were taken using the analysis software.

Another series has as its system HNEC monolayer. The series can be described thus: TEER measurement of HNEC monolayer. Conditions: for TEER after washing and incubating with BEGM:DMEM/F12 (1∶1) for 24 h: after permeation experiment; for TEER decrease during permeation studies, of the initial value: borneol 55.6, 111.2 µg·mL^−1, muscone 8.34, 16.68 µg·mL^−1, and combinations, P<0.05. The procedure:
Transepithelial electrical resistance was measured using an EVOM instrument (Millipore Corporation, USA) to check the monolayer integrity. The TEER of untreated cells and cells treated with borneol and muscone was determined in BEGM:DMEM/F12 (1∶1) before the experiment, after the experiment and after 24 h.

In series [2] the test system is HNECs. The series can be described thus: Membrane fluidity of HNECs by FRAP. The procedure: The cells were seeded on cell plate at a density of 5×10^4 cells·cm^−2. The above formulation groups were added and the plates were incubated for 3 h at 37 °C in a 5% CO2 incubator. Cells were rinsed with HBSS and stained with NBD-C6-HPC at 2 µg·mL^−1 for 30 min.
A method of fluorescence recovery after photobleaching (FRAP) was used here. After the definition of line scanning position, length and photobleaching position, the monolayer was visualized by a Confocal Laser Scanning Microscope under the following conditions: excitation wavelength of 488 nm, emission wavelength of 530 nm, laser power for fluorescence bleaching of 100%, bleaching time of 0.7 s, scanning frequency of 1.65 s and the total scanning time of 100 s. The fluorescence intensity time-variation at the photobleaching position was recorded and image formation was obtained by confocal tomoscanning.
The membrane fluidity was represented by fluorescence recovery rate (R) which was calculated with the following equation (4): [drawing 4] where F0 is the instant fluorescence value after photobleaching, F1 is the fluorescence value before photobleaching and F2 is the fluorescence recovery value after photobleaching.

Take `CC1(C)C2CCC1(C)C(O)C2` (stereo not shown) [borneol, Borneol]: in the series on HNECs [1], the “concentration range with no cell cytotoxicity” value fell in the range of 0 to 300000 ng/mL. Also, the “levels of the TJ proteins localized in the cell-cell junctions” value with actin was “decreased”. Further, the “TEER after washing and incubating with BEGM:DMEM/F12 (1∶1) for 24 h” value in the series on HNEC monolayer was “increased again”. Moreover, in the series with HNEC monolayer, the “TEER decrease during permeation studies, of the initial value” is 10–20%. Also, the “Fluorescence recovery rate R (%)±SD” value in the series on HNECs [2] (Bo 27.8 µg·mL^−1 with Ge 50 µg·mL^−1, 3 h) is given as 37.08±5.05%; in the series with HNECs [2] (Bo 55.6 µg·mL^−1 with Ge 50 µg·mL^−1, 3 h), 49.60±4.21 %; in the series with HNECs [2] (Bo 111.2 µg·mL^−1 with Ge 50 µg·mL^−1, 3 h), 57.33±4.62 %.

For the molecule `C[C@@H]1CCCCCCCCCCCCC(=O)C1` [muscone, Muscone], the “levels of the TJ proteins localized in the cell-cell junctions” value in the series with actin was “decreased”. Also, in the series on HNEC monolayer, the “TEER after washing and incubating with BEGM:DMEM/F12 (1∶1) for 24 h” value is given as “increased again”. Besides, the “TEER decrease during permeation studies, of the initial value” in the series on HNEC monolayer is recorded as 10–20%. For the same molecule, the “Fluorescence recovery rate R (%)±SD” value in the series with HNECs [2] (Mu 4.17 µg·mL^−1 with Ge 50 µg·mL^−1, 3 h) came to 36.43±3.37%; in the series with HNECs [2] (Mu 8.34 µg·mL^−1 with Ge 50 µg·mL^−1, 3 h), 45.45±1.68 %; in the series on HNECs [2] (Mu 16.68 µg·mL^−1 with Ge 50 µg·mL^−1, 3 h), 49.77±5.63 %.
